Assay [1] deals with U251 human glioblastoma cells. It counts as cell-based. The following applies: glioblastoma cells in culture, complete darkness. The procedure: Human HL-60 leukemic cells were grown in RPMI-1640 supplemented with 15% fetal calf serum, […] and 100 units/ml penicillin-streptomycin. Human erythroleukemia K-562 cells (derived from a chronic myeloid leukemia pateient) were grown in the same medium supplemented with 10% fetal calf serum. These cells and the human U251 glioblastoma, U87MG glioblastoma and LAN5 neuroblastoma cells used in the experiments are available from the ATCC. All cell lines were cultured in a humidified 5% CO2/95% air atmosphere at 37° C.
Cell viability was monitored by the MTT assay which measures reduction of 3-(4,5-dimethylthiazol-2-yl)-2,5-diphenyl tetrazolium bromide to formasan by mitochondria of viable cells as described in Mossman, T., J. Immunogen., 21, 235-248 (1983). The cells are incubated with MTT for four hours at 37° C. and analyzed in an ELISA reader at 560 nm. The optical density of formasan generated by untreated cell cultures (O.D. control) is defined as one MTT unit. The number of MTT units in culture samples undergoing treatments is calculated as the ratio (O.D.sample−O.D.blank)/O.D.control).
Three human malignant cell lines were evaluated to sensitivity to dimethyl TMH in vitro. […] The medium was aspirated, the adherent monolayer was washed with phosphate-buffered saline, and cell viability was monitored by the MTI assay. […]

Assay [2] relates to DA-3HI induced breast adenocarcinoma tumors. Briefly: Survival after resection of DA-3HI breast adenocarcinoma tumors with hypericin. It counts as in vivo, BALB/c mice. The following applies: for survival rate: 5 days apart. How it is done: The primary tumor size at which metastases occur in DA-3^HI-derived breast adenocarcinoma tumors was initially calibrated in BALB/c mice inoculated with 5×10^5 DA-3^HI tumor cells intradermally. […] If the resection was performed on tumors with larger diameters, the mice died of metastases. A diameter of approximately 5 mm appears to be the cutoff at which metastases begin to spread.
DA-3^HI tumors were induced in 12-week old female BALB/c mice as described above. When the tumors reached diameters of 8-10 mm the mice were divided into four groups. One group of 19 mice was left untreated and in the three other groups the tumors were surgically removed. One of the resected groups received two intraperitoneal (i.p.) injections with 200 μg hypericin (HY) each 5 days apart beginning two days prior to surgery (16 mice). Another resected group received five i.p. injections with 200 μg hypericin each, 5 days apart beginning two days prior to surgery (17 mice). One resected group was not treated with hypericin (16 mice). The mice were then followed for survival. […] However, administration of 2 i.p. injections of hypericin increased the survival rate to 35% and administration of 5 hypericin doses increased the survival rate to 60%.

The test system of assay [3] is SQ2 squamous cell carcinoma tumors. Briefly: Survival after resection of SQ2 squamous cell carcinoma tumors with hypericin. It counts as in vivo, BALB/c mice. To be noted: for mice alive beyond 240 days following tumor cell inoculation: resection. How it is done: In another set of experiments squamous cell carcinoma tumors were generated in BALB/c mice by inoculating 5×10^5 SQ2 cells per mouse. When the tumors reached a diameter of 1.0-1.2 cm in diameter they were removed by surgery (resected). One group of 5 mice also received three i.p injections of hypericin of 100 μg/mouse prior to surgery and two regimens of 50 μg/mouse post surgery at intervals of 5 days between each dosing. Another group of 8 mice received six hypericin i.p. injections of 100 μg/mouse prior to surgery and five regimens of 50 μg/mouse post surgery at intervals 5 days apart. One control group of 17 mice underwent surgery only without treatments with hypericin and another control group remained untreated (22 mice). Animal survival was then followed.

In assay [4] the test system is DA-3HI metastatic lesions. Briefly: Morphology of metastatic lesions after resection of DA-3HI tumors. It counts as in vivo, BALB/c mice. The following applies: 5 doses of 200 μg/mouse at 5 day intervals, two months after surgery. The procedure:
In an effort to understand how hypericin prevents the growth of metastases the experiment was repeated and the morphology of the metastatic lesions then followed. Primary DA-3^HI tumors were induced in BALB/c mice. Surgery was conducted on the tumors when diameters reached 8-10 mm. These mice (17 animals) were divided into two groups, one treated with 5 doses of hypericin 200 μg/mouse at 5 day intervals as previously described (9 animals) and another group served as untreated control (8 mice). The animals were grown for two more months. The mice were then sacrificed and the internal organs examined for metastatic lesions. […] This was evident only when hypericin injections were initiated very early prior to the resection of the primary tumor. These observations indicate that hypericin inhibits angiogenesis (growth of new vasculature). […] Since angiogenesis is primarily mediated by vascular endothelium growth factor (VEGF), hypericin may interfere with either the formation or secretion of VEGF from tumor cells or with its targeting of growth inducing receptors on vascular endothelial cells. […] Interference with the signal transduction pathway that culminates in the production of VEGF might be the mechanism for hypericin or helianthrone derivative-mediated inhibition of the VEGF effect that results in inhibition of metastatic lesion growth.

Assay [5] relates to heparanase-induced angiogenesis. As to the kind of experiment: Heparanase-induced angiogenesis in the anterior chamber of the rat eye. It counts as in vivo, rats. To be noted: four i.p. injections of 750 μg, 5 days after heparanase. The procedure:
Four rats (250 g each) were given three intraperitoneal injections of hypericin (750 μg per dose in 5 ml water containing 3.5% ethanol) at four day intervals. The following day the animals were anesthetized with xylazine-ketamine and angiogenesis (formation of new blood vessels) was induced by inoculating 2 μl heparanase (30 μg/ml) into the frontal compartment of the eye in the cornea of one of the two eyes in each rat. A fourth intraperitoneal injections of 750 μg hypericin was applied the next day. Two positive control animals received only 2 μl heparanase (30 μg/ml) into the frontal compartment of the eye. Angiogenesis was then allowed to develop for 5 days at which time animals were anesthetized with xylazine-ketamine and examined and photographed under a binocular microscope for development of blood vessels in the anterior chamber of the eye.

The subject of assay [6] is rat aorta rings, endothelial cell microvessels. Briefly: Rat aorta ring microvessel formation in fibrin gel. It counts as cell-based. The following applies: 0.1-10 μg/ml (0.2-20 μM). An excerpt:
Rat aorta is carved into rings which are embedded in fibrin gels and cultured in MCDB 131 medium. Endothelial cells that detach from the aorta rings generate branching microvessels according to a method previously described (Nicosia R. F. and Ottinetti A. Growth of microvessels in serum-free matrix culture of rat aorta. Laboratory Investigation 63: 115, 1990).

For the next assay, the system named is tumor neovascularization. As to the kind of experiment: Tumor neovascularization in tumor-bearing mice. The following applies: mouse, in vivo. An excerpt:
These hitherto unknown attributes were detected while studying the effects of hypericin and of helianthrone derivatives on breast adenocarcinoma tumors induced in mice with the DA-3^HI cell line and on murine anaplastic squamous carcinoma tumors induced with the SQ-2 cell line. Both are highly metastatic tumors and if surgically resected after having reached a diameter larger than 5 mm, the mice will go on to develop metastases in the lungs and liver. The metastases cause death of the animals within approximately two months following surgery.
By preventing development of new blood vessels to supply a growing metastasis, the rapidly growing metastatic focus is deprived of nutrients and oxygen for its rapidly multiplying cells and the lesion degenerates.

As for `Cc1cc(O)c2c(=O)c3c(O)cc(O)c4c5c(O)cc(O)c6c(=O)c7c(O)cc(C)c8c1c2c(c34)c(c78)c65` [hypericin], the “effect on the cultures at doses at which dimethyl-TMH kills cells” value in assay [1] was “no effect”. The “inhibition of the primary tumor” value in assay [2] (DA-3HI breast adenocarcinoma tumors) and in assay [3] (SQ-2 anaplastic squamous carcinoma tumors) was “not inhibited” in each case. Further, the survival rate was 35% in assay [2] (day 89, resection plus 2 i.p. injections of 200 μg) and 60% in assay [2] (day 89, resection plus 5 i.p. injections of 200 μg). The “mice alive beyond 240 days following tumor cell inoculation” value in assay [3] (six i.p. injections 100 μg/mouse prior to surgery, five of 50 μg/mouse post surgery) was 40%; in assay [3] (three i.p. injections 100 μg/mouse prior to surgery, two of 50 μg/mouse post surgery), 60%. Further, the “protection rates due to hypericin administration” value in assay [3] (versus surgery only) is 20-40%. Also, the “appearance of metastatic lesions in internal organs” value in assay [4] was “much smaller, somewhat more necrotic and devoid of such vasculature”. The “blood vessels in the anterior chamber of the eye” value in assay [5] was “absence of blood vessels”. Also, the “formation of organized microvessels” value in assay [6] is reported as “inhibition of formation of the organized microvessels”. Moreover, in the assay on tumor neovascularization, the neovascularization of tumors entry is on record as “prevented neovascularization”.
For the compound `Cc1ccc2c(=O)c3c(O)cc(O)c4c5c(O)cc(O)c6c(=O)c7ccc(C)cc7c(c65)c(c2c1)c34` [dimethyl tetrahydroxyhelianthrone, 10,13-dimethyl-1,3,4,6-tetrahydroxyhelianthrone], the “formation of organized microvessels” value in assay [6] is “inhibition of formation of the organized microvessels”. In the assay on tumor neovascularization, the neovascularization of tumors entry was “prevented neovascularization”.

Source of the values: US6867235B2, “Helianthrone derivatives as anti-cancer agents” (Yeda Research and Development Co. Ltd., priority 2000, dated 2005).
